Measurements: US7732401B2, “Inhibitor of TGF-β activation reaction” (Riken, priority 2007, dated 2010)
Entries after “also recorded” stand apart in the source; their conditions may differ. Where no end group is shown, it is not given here.

Key:
[1] = test system: endotoxin (LPS)-preadministered partially-hepatectomized mice; assay: LPS-preadministered partially-hepatectomized mice model for impaired liver regeneration, PCNA staining; type: in vivo, mouse; conditions: Example 2, 200 μg/head i.v., 8 times; for improvement of impaired liver regeneration due to preadministration of LPS: PCNA staining, FIG. 3 and 4
[2] = test system: active TGF-β1; assay: Amount of active TGF-β1 in conditioned medium of hepatic stellate cells (ELISA); type: cell-based, rat; conditions: for amount of active TGF-β generated into the conditioned medium, of the control / TGF-β (active TGF-β generated into the conditioned medium): Example 1, peptide 1 mM; for TGF-β (active TGF-β generated into the conditioned medium): Table 1; for inhibition of generation of the active TGF-β in the conditioned medium observed in control cells: Example 4, peptide 0.5 mM
Protocol: According to the method previously reported (Okuno M. et al., Gastroenterology 2001; 120: 1784-1800), hepatic stellate cells were isolated from the liver of male Wistar rats (body weight: 350 to 400 g; Japan Clea), and the isolated cells were then seeded in a concentration of 1×10^6 cells/dish on a 3.5-cm culture plastic dish. Thereafter, the cells were cultured in 1 ml of Dulbecco's modified Eagle medium (DMEM; manufactured by SIGMA) containing 10% fetal calf serum (FCS; manufactured by GIBCO).
A 60 mM aqueous stock solution of each peptide was prepared, and the peptide was then dissolved in a medium to make a final concentration of 1 mM. Until the 3rd day of isolation, the aforementioned cells were treated in a DMEM medium containing 10% FCS. On the 4th day, the medium was exchanged with serum free DMEM containing 0.1% bovine serum albumin (BSA) and each peptide with a final concentration of 1 mM, and the culture was further continued for 2 to 4 days. Thereafter, the culture medium was collected as a conditioned medium, and the amount of active TGF-β1 present in the conditioned medium was measured using an ELISA kit manufactured by PROMEGA. At the same time, the state of the cells was observed under a microscope (DMIRB; manufactured by Leica) and was then photographed.
Each peptide was dissolved in a medium to a final concentration of 0.5 mM (approximately 500 μg/ml). At the 1st day of isolation, the aforementioned cells were treated in a DMEM medium containing 10% FCS. On the 2nd day, the medium was changed with serum free DMEM containing 0.1% BSA and each peptide at a final concentration of 0.5 mM, and the culture was further continued for 2 to 7 days. Thereafter, the culture medium was collected as a conditioned medium, and the amount of active TGF-β1 present in the conditioned medium was then quantitated using an ELISA kit manufactured by PROMEGA. At the same time, the state of the cells was observed under a microscope (DMIRB; manufactured by Leica) and photographed.

[3] = test system: TGF-β1; assay: Amount of TGF-β1 in hepatic tissues of LPS-preadministered partially-hepatectomized mice (ELISA); type: in vivo, mouse; conditions: 200 μg/head i.v.; for Hepatic TGF-β1 Contents: Table 3
Protocol: A liver extract was prepared from approximately 100 mg of the hepatic tissues prepared for the use in protein quantitation in 11.2 above, according to the method of Okuno M. et al. (Okuno M. et al., Gastroenterology 2001; 120: 1784-1800). The amount of TGF-β1 in the extract was quantitated using an ELISA kit manufactured by PROMEGA. The quantitated TGF-β1 amount was presented as a pg/mg of protein.
A liver extract was prepared from approximately 30 mg of the hepatic tissues prepared for the use in protein quantitation in 11.2 above, according to the method of Okuno M. et al. (Okuno M. et al., Gastroenterology 2001; 120: 1784-1800). The amount of TGF-β1 in the extract was determined using an ELISA kit manufactured by PROMEGA. The amount of TGF-β1 was presented as a pg/mg protein of the sample. Other conditions were the same as those described in Example 2.

[4] = test system: endotoxin (LPS)-preadministered partially-hepatectomized mice; assay: LPS-preadministered partially-hepatectomized mice model for impaired liver regeneration, PCNA staining; type: in vivo, mouse; conditions: Example 5, 200 μg/head i.v., 8 times; for percentage of PCNA positive cells: 48 hours after PH, FIG. 10; for improvement of impaired liver regeneration caused by preadministration of LPS: PCNA staining, FIG. 9
Protocol: For the experiment, 26 five-week-old male C3H/HeN mice were used. After completion of quarantine and environmental acclimatization, the mice were divided into the following 5 groups according to the body weight of each mouse on the day of grouping. These include, a group to which saline was preadministered and saline was then administered (G1: n=6); a group to which LPS was preadministered and saline was then administered (G2: n=6); a group to which LPS was preadministered and QP peptide was then administered (G3: n=4); a group to which LPS was preadministered and QPA peptide was then administered (G4: n=4); and a group to which LPS was preadministered and T200 peptide was then administered (G5: n=6) (Table 2).
After starting the test, 7 μg of LPS (saline in the case of G1) was intraperitoneally administered. Forty-eight hours later, partial hepatectomy was carried out on all the mice. Another forty-eight hours later, all the surviving mice were subjected to an autopsy. In the autopsy, blood was collected. Thereafter, 1 to 3 mice from each group were subjected to systemic perfusion with 4% paraformaldehyde (PFA), and the liver was then excised. All the excised lobes were embedded in an embedding agent “Tissue Mount” in a frozen state. On the other hand, the remaining 1 to 3 mice from each group were not subjected to systemic perfusion, and a portion of the liver was fixed with formalin, and the remaining portion was collected to be used as a frozen sample (used for mRNA and for protein quantitation). The organ that had been fixed with formalin was processed into a block, and it was then preserved together with the frozen sample in a deep freezer at −80° C.
Preparation method: A small amount of saline was added to one vial container that contained 5 mg of LPS, and it was then dissolved therein. Subsequently, the resultant solution was transferred into another container, and saline was then gradually added thereto to a total amount of 5 mL. The thus obtained solution was defined as a 1 μg/μL solution. 350 μL was collected from the obtained solution by precise weighing, and it was then added to a container that contained 4.65 mL of a sterilized normal saline solution (solvent). Thereafter, the mixed solution was filtrated and sterilized using a 0.22-μm filter, and the resultant was used as a sample to be administered. 7.2 LPS Administration Method Dose: 7 μg/head Administration route: intraperitoneal administration Administration volume: 0.1 mL/head Administration number: once (single administration) Administration timing: 48 hours before partial hepatectomy Target animal: G2 to G5 (To G1, saline was administered.) 8. Administration of Test Substance 8.1 Preparation of Peptide-Administering Sample Preparation frequency: once Preparation method: A peptide was dissolved in saline to a concentration of 2 mg/ml, and the resultant was used as a sample to be administered. Preservation method: The sample was preserved in a refrigerator before use. (The temperature was set at 4° C.) 8.2 Peptide Administration Method Dose: 200 μg/head Administration route: intravenous administration Administration volume: 0.11 mL/head Administration timing: 50, 38, 24, 14 and 2 hours before, and 10, 24 and 34 after partial hepatectomy Number of administration: twice/day, for 4 days (in principle, at 9:00 and at 19:00), 8 times in total Target animal: […] (To G1 and G2, saline was administered.) 9. Partial Hepatectomy (⅔ Partial Hepatectomy; PH) 9.1 Treating Method
Using a rotary microtome (Leica), a hepatic tissue section with a thickness of 5 μm was prepared from the embedded hepatic tissues. A proliferating cell nuclear antigen (PCNA; a proliferating cell marker) was stained according to the previously reported method (Greenwell A. et al., Cancer Lett 1991; 59: 251-256) using a Histofine kit (Nichirei Corporation). […]

Substance | percentage of PCNA positive cells ([1]; 48 hours after PH, FIG. 4) [%] | improvement of impaired liver regeneration due to preadministration of LPS [1] | amount of active TGF-β generated into the conditioned medium, of the control [2] [%] | TGF-β (active TGF-β generated into the conditioned medium) [2] [pg/mL] | inhibition of generation of the active TGF-β in the conditioned medium observed in control cells [2] [%] | hepatic contents of TGF-β1, times higher than the value of the control group ([3]; Example 2, LPS + PH) | Hepatic TGF-β1 Contents ([3]; Example 2, LPS + PH) [pg/mg protein] | hepatic contents of TGF-β1, times higher than the value of the control group ([3]; Example 5, LPS + PH, FIG. 11) | percentage of PCNA positive cells [4] [%] | improvement of impaired liver regeneration caused by preadministration of LPS [4] | improvement of impaired liver regeneration due to preadministration of LPS ([1]; listed as P200 peptide)
N-52QILSAAAAASP62-C (QILSAAALASP) [QPA peptide, mutant of QP peptide with Lys56, Leu57, Arg58 and Leu59 substituted with Ala] | 47 | significantly improved | 2 | 4 ± 1 | 25 | approximately 1.4 times | 10 ± 11 | ~0.7 times | 70 | significantly improved | 
N-52QILSQQQQASP62-C [QPQ peptide, mutant of QP peptide with Lys56, Leu57, Arg58 and Leu59 substituted with Gln] |  |  |  |  | 90 |  |  | approximately 1.6 times | 64 | significantly improved | 
QILSKLRLASP [QP peptide] |  | significantly improved; also recorded: completely improved |  |  | 55 |  |  | approximately 1.6 times | 66 | significantly improved | 
TGVVRQWLSRG [T200 peptide, reference compound] |  | did not exhibit such an improving effect | 74 | 160 ± 19 |  | approximately 3 times | 20 ± 26 | 3.1 times | 45 | did not exhibit such an improving effect | did not exhibited any such improving effects
